In patent US7053088B2, “Vanilloid receptor ligands and their use in treatments” (Amgen Inc., priority 2002, dated 2006):
Structures can show the parent of a compound that is named as a salt.

Compound	melting point
CC(=O)Nc1nc2c(Nc3cc(-c4ccc(C(F)(F)F)cc4)ncn3)cccc2s1 [N-{4-[6-(4-Trifluoromethylphenyl)pyrimidin-4-ylamino]benzothiazol-2-yl}acetamide]	> 250 °C
FC(F)(F)c1ccc(-c2cc(Nc3ccc4c(n3)NCCC4)ncn2)cc1 [(5,6,7,8-tetrahydro[1,8]naphthyridin-2-yl)-[6-(4-trifluoromethylphenyl)pyrimidin-4-yl]amine]	168 °C
OCc1cc2cccc(Nc3cc(-c4ccc(C(F)(F)F)cc4)ncn3)c2[nH]1 [{7-[6-(4-Trifluoromethylphenyl)pyrimidin-4-ylamino]-1H-indol-2-yl}methanol]	221 to 223 °C
CC(C)(C)c1ccc(-c2cc(Nc3cnc4ccccc4c3)ncn2)cc1 [Example 47]	227 to 229 °C
FC(F)(F)c1ccc(-c2cc(Nc3ccc4ncsc4c3)nnc2Cl)cc1 [Benzothiazol-6-yl-[6-chloro-5-(4-trifluoromethylphenyl)pyridazin-3-yl]amine]	206.3 °C (dec.)
CC(C)(C)c1ccc(-c2cc(Nc3ccc4ncsc4c3)nnc2-c2ccccc2)cc1 [Benzothiazol-6-yl-[5-(4-tert-butylphenyl)-6-phenylpyridazin-3-yl]amine]	293 to 295 °C
CC(C)(C)c1ccc(-c2cc(Nc3ccc4nn[nH]c4c3)ncn2)cc1 [(3H-benzotriazol-5-yl)-[6-(4-tert-butylphenyl)pyrimidin-4-yl]amine]	250 to 252 °C
FC(F)(F)c1ccc(-c2cc(Nc3ccc(Cl)c(C(F)(F)F)c3)ncn2)cc1 [(4-chloro-3-trifluoromethylphenyl)-[6-(4-trifluoromethylphenyl)pyrimidin-4-yl]amine]	172 to 175 °C
FC(F)(F)c1ccc(-c2cc(Nc3cccnc3Cl)ncn2)cc1 [(2-chloropyridin-3-yl)-[6-(4-trifluoromethylphenyl)pyrimidin-4-ylamine]	134 to 135 °C
CC(C)(C)c1ccc(-c2cc(Nc3ccccc3)ncn2)cc1 [[6-(4-tert-butylphenyl)pyrimidin-4-yl]phenylamine]	166 °C
Cc1ccc(Nc2cc(-c3ccc(C(F)(F)F)cc3)ncn2)cc1C [(3,4-dimethylphenyl)-[6-(4-trifluoromethylphenyl)pyrimidin-4-yl]amine]	154 to 156 °C
CC(C)(C)c1ccc(-c2cc(Nc3ccc4[nH]ccc4c3)nnc2-c2ccccc2)cc1 [[5-(4-tert-Butylphenyl)-6-phenyl-pyridazin-3-yl]-(1H-indol-5-yl)-amine]	138 to 140 °C
CC(=O)N1CC(C)(C)c2ccc(Nc3cc(-c4ccc(C(F)(F)F)cc4)ncn3)cc21 [1-{3,3-Dimethyl-6-[6-(4-trifluoromethylphenyl)pyrimidin-4-ylamino]-2,3-dihydroindol-1-yl}ethanone]	227 to 230 °C
Fc1ccc(-c2nnc(Nc3ccc4ncsc4c3)cc2-c2ccc(C(F)(F)F)cc2)cc1 [benzothiazol-6-yl-[6-(4-fluorophenyl)-5-(4-trifluoromethylphenyl)pyridazin-3-yl]amine]	269 °C
CC(C)(C)c1ccc(-c2cc(Nc3ccc4ncsc4c3)nc(N)n2)cc1.Cl [N^4-Benzothiazol-6-yl-6-(4-tert-butylphenyl)pyrimidine-2,4-diamine hydrochloride]	220 to 222 °C
CC(C)(C)c1ccc(-c2cc(Nc3ccc4cc[nH]c4c3)ncn2)cc1 [Example 48]	194 to 196 °C
FC(F)(F)c1ccc(-c2cc(Nc3ccc4ccc(Cl)nc4c3)ncn2)cc1 [(2-Chloroquinolin-7-yl)-[6-(4-trifluoromethylphenyl)pyrimidin-4-yl]amine]	233 °C
FC(F)(F)c1ccc(-c2cc(Nc3ccc4scnc4c3)ncn2)cc1 [Benzothiazol-5-yl-[6-(4-trifluoromethylphenyl)pyrimidin-4-yl]amine]	192.1 to 192.2 °C

Compound	melting point
Nc1nc2c(Nc3cc(-c4ccc(C(F)(F)F)cc4)ncn3)cccc2s1 [N^4-[6-(4-Trifluoromethylphenyl)pyrimidin-4-yl]benzothiazole-2,4-diamine]	225 to 227 °C
Cc1ccc(Cl)cc1Nc1cc(-c2ccc(C(F)(F)F)cc2)ncn1 [Example 65]	144 to 146 °C
FC(F)(F)c1ccc(-c2cc(Nc3cccc4ccccc34)ncn2)cc1 [Example 76]	232 to 233 °C
FC(F)(F)c1ccc(-c2cc(Nc3ccc4ccccc4c3)ncn2)cc1 [Example 70]	212 to 213 °C
FC(F)(F)c1ccc(-c2cc(Nc3cnc4ccccc4c3)ncn2)cc1 [Example 50]	262 to 263 °C
CC(C)(C)c1ccc(-c2cc(Nc3ccc4c(c3)OCCO4)ncn2)cc1 [[6-(4-tert-Butylphenyl)pyrimidin-4-yl]-(2,3-dihydrobenzo[1,4]dioxin-6-yl)amine]	199 to 202 °C
OCCOc1ccc(Nc2cc(-c3ccc(C(F)(F)F)cc3)ncn2)cn1 [2-{5-[6-(4-Trifluoromethylphenyl)pyrimidin-4-ylamino]pyridin-2-yloxy}ethanol]	189.5 to 190.5 °C
COc1ccc(-c2nnc(Nc3ccc4cccnc4c3)cc2-c2ccc(C(F)(F)F)cc2)cc1 [Example 89, [6-(4-Methoxyphenyl)-5-(4-trifluoromethylphenyl)pyridazin-3-yl]-[quinolin-7-yl]amine]	215 to 217 °C
CC(C)(C)c1ccc(-c2cc(Nc3ccc4ncsc4c3)ncn2)cc1 [benzothiazol-6-yl-[6-(4-tert-butylphenyl)pyrimidin-4-yl]amine]	237 °C
Oc1ccc2ccc(Nc3cc(-c4ccc(C(F)(F)F)cc4)ncn3)cc2n1 [7-[6-(4-Trifluoromethylphenyl)pyrimidin-4-ylamino]quinolin-2-ol]	337 °C (dec.)
FC(F)(F)c1ccc(-c2cc(Nc3cccc4ncccc34)ncn2)cc1 [Example 74]	238 to 239 °C
COc1ccc(Nc2cc(-c3ccc(C(F)(F)F)cc3)ncn2)cn1 [(6-methoxypyridin-3-yl)-[6-(4-trifluoromethylphenyl)pyrimidin-4-yl]amine]	123 to 127 °C
FC(F)(F)c1ccc(-c2cc(Nc3cccc4ccc(Cl)nc34)ncn2)cc1 [(2-Chloroquinolin-8-yl)-[6-(4-trifluoromethylphenyl)pyrimidin-4-yl]amine]	240 °C
FC(F)(F)c1ccc(-c2cc(Nc3ccc4ncsc4c3)nnc2-c2ccccc2)cc1 [benzothiazol-6-yl-[6-phenyl-5-(4-trifluoromethylphenyl)pyridazin-3-yl]amine]	272 °C
Cc1ccc(Nc2cc(-c3ccc(C(F)(F)F)cc3)ncn2)cc1 [Example 60]	159 to 160 °C
Cc1nc2cc(Nc3cc(-c4ccc(C(F)(F)F)cc4)ncn3)ccc2s1 [(2-methylbenzothiazol-5-yl)-[6-(4-trifluoromethylphenyl)pyrimidin-4-yl]amine]	219.5 to 220.5 °C
FC(F)(F)c1ccc(-c2cc(Nc3ccc4[nH]ncc4c3)ncn2)cc1 [(1H-indazol-5-yl)-[6-(4-trifluoromethylphenyl)pyrimidin-4-yl]amine]	224 to 226 °C

Second part, the compound after the results:

melting point	Compound
204 to 205 °C	CS(=O)(=O)c1cccc(Nc2cc(-c3ccc(C(F)(F)F)cc3)ncn2)c1 [(3-Methanesulfonylphenyl)-[6-(4-trifluoromethylphenyl)pyrimidin-4-yl]amine]
268 to 269 °C	FC(F)(F)c1ccc(-c2cc(Nc3ccc4ncccc4c3)ncn2)cc1 [Example 72]
148 to 150 °C	Cc1c(Cl)cccc1Nc1cc(-c2ccc(C(F)(F)F)cc2)ncn1 [Example 57]
211 to 213 °C	Nc1ccc2cccc(Nc3cc(-c4ccc(C(F)(F)F)cc4)ncn3)c2n1 [N^8-[6-(4-Trifluoromethylphenyl)pyrimidin-4-yl]quinoline-2,8-diamine]
260 °C	FC(F)(F)c1ccc(-c2cc(Nc3ccc4cccnc4c3)ncn2)cc1 [Quinolyl-7-yl-[6-(4-trifluoromethylphenyl)pyrimidin-4-yl]amine]
221 to 224 °C	CC(C)(C)c1ccc(-c2cc(Nc3ccc4c(c3)OCCO4)nc(N)n2)cc1 (as salt: hydrochloride) [[2-Amino-6-(4-tert-butylphenyl)pyrimidin-4-yl]-(2,3-dihydrobenzo[1,4]-dioxin-6-yl)amine hydrochloride]
162 to 163 °C	FC(F)(F)c1ccc(-c2cc(Nc3cccc4cccnc34)ncn2)cc1 [Example 73]
238 to 240 °C	CC(C)(C)c1ccc(-c2cc(Nc3ccc4[nH]ccc4c3)ncn2)cc1 [Example 54]
199 °C	COc1ccc2ccc(Nc3cc(-c4ccc(C(F)(F)F)cc4)ncn3)cc2n1 [(2-Methoxyquinolin-7-yl)-[6-(4-trifluoromethylphenyl)pyrimidin-4-yl]amine]
178 to 180 °C	FC(F)(F)c1ccc(-c2cc(Nc3ccc(Cl)c(Cl)c3)ncn2)cc1 [(3,4-dichlorophenyl)-[6-(4-trifluoromethylphenyl)pyrimidin-4-yl]amine]
117 to 119 °C	Cc1ccccc1Nc1cc(-c2ccc(C(F)(F)F)cc2)ncn1 [Example 64]
184 to 186 °C	FC(F)(F)c1ccc(-c2cc(Nc3ccccc3)ncn2)cc1 [phenyl-[6-(4-trifluoromethylphenyl)pyrimidin-4-yl]amine]
193 to 196 °C	FC(F)(F)c1ccc(-c2cc(Nc3ccc(Cl)cc3)ncn2)cc1 [(4-chlorophenyl)-[6-(4-trifluoromethylphenyl)pyrimidin-4-yl]amine]
231 to 232 °C	FC(F)(F)c1ccc(-c2cc(Nc3ccc4cc[nH]c4c3)ncn2)cc1 [Example 42]
184 to 187 °C	COc1cccc(Nc2cc(-c3ccc(C(C)(C)C)cc3)ncn2)c1 [[6-(4-tert-butylphenyl)pyrimidin-4-yl]-(3-methoxyphenyl)amine]
203.1 to 203.2 °C	Nc1cc(C(F)(F)F)ccc1-c1cc(Nc2ccc3ncsc3c2)ncn1 [[6-(2-Amino-4-trifluoromethylphenyl)pyrimidin-4-yl]benzothiazol-6-ylamine]
130 to 132 °C	CSc1cccc(Nc2cc(-c3ccc(C(F)(F)F)cc3)ncn2)c1 [(3-methylsulfanylphenyl)-[6-(4-trifluoromethylphenyl)pyrimidin-4-yl]amine]
